Data taken from patent US20030032651A1 (priority 2001, published 2003).

Assays:
[1] = after parenteral injection; cited from earlier work
[2] = Rat hindpaw withdrawal latency (HWL) to mechanical stimulation (Randall Selitto Test); format: in vivo; details: Day 14, i.t. every 12 hrs, morphine 8 μg rotated with nociceptin 10 nmol every 2 days
[3] = Rat hindpaw withdrawal latency (HWL) to thermal stimulation (hot-plate test, 52° C.); format: in vivo; details: Day 6, i.t. every 12 hrs: morphine 8 μg, or rotated with nociceptin 10 nmol every 2 days
[4] = Development of tolerance to intrathecal analgesia in rat HWL study (thermal and mechanical); format: in vivo; details: drug alone i.t. every 12 hrs

Row | SMILES | brain penetration [1] | % Changes of HWL to Mechanical Stimulation 10 Minutes After Intrathecal Injection, Left [2] | % Changes of HWL to Thermal Stimulation 10 Minutes After Intrathecal Injection, Left ([3]; left hindpaw) | % Changes of HWL to Thermal Stimulation 10 Minutes After Intrathecal Injection, Right ([3]; right hindpaw) | day by which total/complete tolerance exists [4]
1 | O=C1NCN(c2ccccc2)C12CCN([C@H]1CC[C@@H]3CCCc4cccc1c43)CC2 [RO 64-6198, (1S,3aS)8-(2,3,3a,4,5,6-hexahydro-1H-phenalen-1-yl)-1-phenyl-1,3,8-triaza-spiro[4,5]decan-4-one] | high degree of brain penetration |  |  |  | 
2 | CN1CC[C@]23c4c5ccc(O)c4O[C@H]2[C@@H](O)C=C[C@H]3[C@H]1C5 [Morphine, morphine] |  | −0.84 ± 1.61% | −1.30 ± 2.36% | 0.51 ± 1.61% | ≤ 6 days
